Patent US20240197726A1, “NOVEL TETRAHYDROISOQUINOLINE ALKALOID COMPOUND CONTAINING MACROCYCLE” (THE UNIVERSITY OF TOKYO, priority 2021, published 2024)
Read-outs that look alike come from different tables or passages of the source.

Key:
Type in all cases: cell-based
[1] = system: U251 central nervous system cancer cells; experiment: antitumor activity, sulforhodamine B cell growth assay, U251
Protocol: (§1) The THIQ compound containing a macrocyclic structure of the present invention was administered to various cancer cell lines, and the antitumor activity (Go value) was observed. Specifically, verification was performed according to the literature (Yamori, T.; Matsunaga, A.; Sato, S.; Yamazaki, K.; Komi, A.; Ishizu, K. et al. Cancer Res. 1999, 59, 4042) by the following procedure.
(§2) Cells were plated at an appropriate density in a 96-well plate in RPMI 1640 together with 5% fetal bovine serum, and adhered overnight. The cells were exposed to a drug for 48 hours. Then, according to the sulforhodamine B assay described by Skehan et al (Skehan P., Storeng R., Scudiero D., Monks A., McMahon J., Vistica D., Warren J. T., Bokesch H., Kenney S., Boyd M. R. J Natl. Cancer Inst, 1990, 82, 1107-1112), the cell growth rate was measured. The absorbance of the control well (C) and the test well (T) was measured at 525 nm. In addition, the time at which the drug was added was set as time 0, and the absorbance for the test well (T0) was measured. Using these measured values, the cell growth inhibitory effect (% growth=PG) was calculated by the following formula at each concentration of the drug.
(§3) (T<T0): PG=100×[(T−T0)/T]
(§4) The PG values determined above for each cell line were plotted against the concentration (logarithm) on a semi-logarithmic graph, and summarized for each visceral cancer. Concentrations at which the dose-response curve of each cell line crossed the horizontal line of PG=50%, 0%, or −50% were calculated. These concentrations were defined as Log GI50, Log TGI, and Log LC50. Actually, using two data points of the drug concentration before and after crossing each horizontal line, the drug concentration (logarithmic value) at the intersection of the straight line connecting the two points and the horizontal line for each PG was calculated.

[2] = system: NCI-H23 lung cancer cells; experiment: antitumor activity, sulforhodamine B cell growth assay, NCI-H23
Protocol: as §1, §2, §3, §4

[3] = system: MCF-7 breast cancer cells; experiment: antitumor activity, sulforhodamine B cell growth assay, MCF-7
Protocol: as §1, §2, §3, §4

[4] = system: MKN1 gastric cancer cells; experiment: antitumor activity, sulforhodamine B cell growth assay, MKN1
Protocol: as §1, §2, §3, §4

[5] = system: HCC2998 colorectal cancer cells; experiment: antitumor activity, sulforhodamine B cell growth assay, HCC2998
Protocol: as §1, §2, §3, §4

[6] = system: MKN74 gastric cancer cells; experiment: antitumor activity, sulforhodamine B cell growth assay, MKN74
Protocol: as §1, §2, §3, §4

DMS273 lung cancer cells = experiment: antitumor activity, sulforhodamine B cell growth assay, DMS273
Protocol: as §1, §2, §3, §4

[7] = system: SNB-75 central nervous system cancer cells; experiment: antitumor activity, sulforhodamine B cell growth assay, SNB-75
Protocol: as §1, §2, §3, §4

[8] = system: PC-3 prostate cancer cells; experiment: antitumor activity, sulforhodamine B cell growth assay, PC-3
Protocol: as §1, §2, §3, §4

A549 lung cancer cells = experiment: antitumor activity, sulforhodamine B cell growth assay, A549
Protocol: as §1, §2, §3, §4

OVCAR-8 cancer cells = experiment: antitumor activity, sulforhodamine B cell growth assay, OVCAR-8
Protocol: as §1, §2, §3, §4

[9] = system: various cancer cell lines; experiment: Verification of antitumor activity, whole panel of cancer cell lines; conditions: in words, compared with Cyanosafracin B
Protocol: as §1, §2, §3, §4

[10] = system: NCI-H460 lung cancer cells; experiment: antitumor activity, sulforhodamine B cell growth assay, NCI-H460
Protocol: as §1, §2, §3, §4

OVCAR-3 cancer cells = experiment: antitumor activity, sulforhodamine B cell growth assay, OVCAR-3
Protocol: as §1, §2, §3, §4

[11] = system: HBC-5 breast cancer cells; experiment: antitumor activity, sulforhodamine B cell growth assay, HBC-5
Protocol: as §1, §2, §3, §4

[12] = system: BSY-1 breast cancer cells; experiment: antitumor activity, sulforhodamine B cell growth assay, BSY-1
Protocol: as §1, §2, §3, §4

[13] = system: DU-145 prostate cancer cells; experiment: antitumor activity, sulforhodamine B cell growth assay, DU-145
Protocol: as §1, §2, §3, §4

[14] = system: KM-12 colorectal cancer cells; experiment: antitumor activity, sulforhodamine B cell growth assay, KM-12
Protocol: as §1, §2, §3, §4

SK-OV-3 cancer cells = experiment: antitumor activity, sulforhodamine B cell growth assay, SK-OV-3
Protocol: as §1, §2, §3, §4

[15] = system: SF-268 central nervous system cancer cells; experiment: antitumor activity, sulforhodamine B cell growth assay, SF-268
Protocol: as §1, §2, §3, §4

LOX-IMVI melanoma cells = experiment: antitumor activity, sulforhodamine B cell growth assay, LOX-IMVI
Protocol: as §1, §2, §3, §4

[16] = system: SF-539 central nervous system cancer cells; experiment: antitumor activity, sulforhodamine B cell growth assay, SF-539
Protocol: as §1, §2, §3, §4

Work on `C#CCN1C/C=C/COc2c(C)c3c(c4c2C[C@H]2[C@H]5c6c(cc(C)c(OC)c6O)C[C@@H]([C@H](C#N)N2C4CNC(=O)[C@@H]1C)N5C)OCO3` [Compound 44] yielded a GI50 ([1]; Homo sapiens, U-251, U251 central nervous system cancer cells, read-out: antitumor activity GI50 value: 50% growth inhibitory concentration) of under 10 nM, a GI50 ([2]; Homo sapiens, NCI-H23, NCl-H23 lung cancer cells, read-out: antitumor activity GI50 value: 50% growth inhibitory concentration) of under 10 nM and a GI50 ([3]; Homo sapiens, MCF7, MCF-7 breast cancer cells, read-out: antitumor activity GI50 value: 50% growth inhibitory concentration) of under 10 nM. The GI50 ([4]; Homo sapiens, MKN-1, MKN1 gastric cancer cells, read-out: antitumor activity GI50 value: 50% growth inhibitory concentration) was under 10 nM, the GI50 ([5]; Homo sapiens, HCC 2998, HCC2998 colorectal cancer cells, read-out: antitumor activity GI50 value: 50% growth inhibitory concentration) was under 10 nM and the GI50 ([6]; Homo sapiens, MKN-74, MKN74 gastric cancer cells, read-out: antitumor activity GI50 value: 50% growth inhibitory concentration) was under 10 nM. It also gave a GI50 (DMS273 lung cancer cells; Homo sapiens, DMS-273, DMS273 lung cancer cells, read-out: antitumor activity GI50 value: 50% growth inhibitory concentration) of under 10 nM, a GI50 ([7]; Homo sapiens, SNB-75 central nervous system cancer cells, read-out: antitumor activity GI50 value: 50% growth inhibitory concentration) of under 10 nM and a GI50 ([8]; PC-3 prostate cancer cells, read-out: antitumor activity GI50 value: 50% growth inhibitory concentration) of under 10 nM. For the same compound, the GI50 (A549 lung cancer cells; Homo sapiens, A549 lung cancer cells, read-out: antitumor activity GI50 value: 50% growth inhibitory concentration) was under 10 nM, the GI50 (OVCAR-8 cancer cells; Homo sapiens, OVCAR-8 cervical cancer cells, read-out: antitumor activity GI50 value: 50% growth inhibitory concentration) was under 10 nM and the antitumor activity [9] was “better antitumor activity than Cyanosafracin B”. The GI50 ([10]; Homo sapiens, NCI-H460, NCl--H460 lung cancer cells, read-out: antitumor activity GI50 value: 50% growth inhibitory concentration) was under 10 nM, the GI50 (OVCAR-3 cancer cells; Homo sapiens, OVCAR-3 cervical cancer cells, read-out: antitumor activity GI50 value: 50% growth inhibitory concentration) was under 10 nM and the GI50 ([11]; HBC5, HBC-5 breast cancer cells, read-out: antitumor activity GI50 value: 50% growth inhibitory concentration) was under 10 nM. For the same compound, the GI50 ([12]; BSY-1 breast cancer cells, read-out: antitumor activity GI50 value: 50% growth inhibitory concentration) was under 10 nM, the GI50 ([13]; Homo sapiens, DU-145 prostate cancer cells, read-out: antitumor activity GI50 value: 50% growth inhibitory concentration) was under 10 nM and the GI50 ([14]; Homo sapiens, KM12, KM-12 colorectal cancer cells, read-out: antitumor activity GI50 value: 50% growth inhibitory concentration) was under 10 nM. For the same compound, the GI50 (SK-OV-3 cancer cells; Homo sapiens, SK-OV-3 cervical cancer cells, read-out: antitumor activity GI50 value: 50% growth inhibitory concentration) was under 10 nM, the GI50 ([15]; Homo sapiens, SF-268 central nervous system cancer cells, read-out: antitumor activity GI50 value: 50% growth inhibitory concentration) was under 10 nM and the GI50 (LOX-IMVI melanoma cells; Homo sapiens, LOX-IMVI melanoma cells, read-out: antitumor activity GI50 value: 50% growth inhibitory concentration) was under 10 nM. For the same compound, the GI50 ([16]; Homo sapiens, SF-539 central nervous system cancer cells, read-out: antitumor activity GI50 value: 50% growth inhibitory concentration) was under 10 nM.

`COc1c(C)cc2c(c1O)C1C3Cc4c5c(C)c6c(c4C(CNC(=O)C(C)NCC=CCO5)N3C(C#N)C(C2)N1C)OCO6` (centres unmarked) [Compound 42] gave a GI50 ([1]; U251, drug exposure 48 hours, read-out: GI50 value: 50% growth inhibitory concentration) of 13 nM, a GI50 ([2]; NCI-H23, drug exposure 48 hours, read-out: GI50 value: 50% growth inhibitory concentration) of 31 nM and a GI50 ([3]; MCF-7, drug exposure 48 hours, read-out: GI50 value: 50% growth inhibitory concentration) of under 10 nM. The GI50 ([4]; MKN1, drug exposure 48 hours, read-out: GI50 value: 50% growth inhibitory concentration) was 18 nM, the GI50 ([5]; HCC2998, drug exposure 48 hours, read-out: GI50 value: 50% growth inhibitory concentration) was 18 nM and the GI50 ([6]; MKN74, drug exposure 48 hours, read-out: GI50 value: 50% growth inhibitory concentration) was 35 nM. For the same compound, the GI50 (DMS273 lung cancer cells; DMS273, drug exposure 48 hours, read-out: GI50 value: 50% growth inhibitory concentration) was 16 nM, the GI50 ([7]; SNB-75, drug exposure 48 hours, read-out: GI50 value: 50% growth inhibitory concentration) was under 10 nM and the GI50 ([8]; PC-3, drug exposure 48 hours, read-out: GI50 value: 50% growth inhibitory concentration) was 40 nM. For the same compound, the GI50 (A549 lung cancer cells; A549, drug exposure 48 hours, read-out: GI50 value: 50% growth inhibitory concentration) was 110 nM, the GI50 (OVCAR-8 cancer cells; OVCAR-8, drug exposure 48 hours, read-out: GI50 value: 50% growth inhibitory concentration) was 34 nM and the antitumor activity [9] was “better antitumor activity than Cyanosafracin B”. The GI50 ([10]; NCI-H460, drug exposure 48 hours, read-out: GI50 value: 50% growth inhibitory concentration) was 22 nM, the GI50 (OVCAR-3 cancer cells; OVCAR-3, drug exposure 48 hours, read-out: GI50 value: 50% growth inhibitory concentration) was 15 nM and the GI50 ([11]; HBC-5, drug exposure 48 hours, read-out: GI50 value: 50% growth inhibitory concentration) was 17 nM. The GI50 ([12]; BSY-1, drug exposure 48 hours, read-out: GI50 value: 50% growth inhibitory concentration) was under 10 nM, the GI50 ([13]; DU-145, drug exposure 48 hours, read-out: GI50 value: 50% growth inhibitory concentration) was 58 nM and the GI50 ([14]; KM-12, drug exposure 48 hours, read-out: GI50 value: 50% growth inhibitory concentration) was 19 nM. The GI50 (SK-OV-3 cancer cells; SK-OV-3, drug exposure 48 hours, read-out: GI50 value: 50% growth inhibitory concentration) was 49 nM, the GI50 ([15]; SF-268, drug exposure 48 hours, read-out: GI50 value: 50% growth inhibitory concentration) was 27 nM and the GI50 (LOX-IMVI melanoma cells; LOX-IMVI, drug exposure 48 hours, read-out: GI50 value: 50% growth inhibitory concentration) was under 10 nM. The GI50 ([16]; SF-539, drug exposure 48 hours, read-out: GI50 value: 50% growth inhibitory concentration) was 17 nM.
